From USRE43000E1, “Artificial riboswitch for controlling pre-mRNA splicing” (City of Hope, priority 2005, dated 2011)

Test system: pAdML-Theo29AG-EGFP reporter in HEK293 cells
Test: GFP splicing reporter in HEK293 cells (fluorescence microscopy, RT-PCR)
Format: cell-based
Set-up: GFP expression of cells transfected with pAdML-Theo29AG-EGFP: dose or concentration left out as unconfirmed
Source text: Controlling gene expression in living cells through theophylline-RNA interaction. […] To determine if such an approach could also regulate gene expression in living cells, a splicing reporter was constructed in which the cDNA of AdML-Theo29AG pre-mRNA was inserted into the 5′ UTR of green fluorescence protein (GFP) cDNA. It was contemplated that theophylline mediated inhibition of AdML-Theo29AG splicing will prevent the export of GFP mRNA which will be mirrored by the lack of GFP expression. The reporter plasmid was constructed by standard molecular cloning approach. In brief, a PCR amplified DNA fragment containing the entire AdML-Theo29AG sequence was cloned into the EcoRI/Sal I digested expression vector (pEGFP-N1, Invitrogen). The resulting reporter plasmid, pAdML-Theo29AG-EGFP, contains the cDNA of AdML-Theo29AG pre-mRNA fused 5′ to the GFP coding sequence.
To examine theophylline-mediated regulation of AdML-Theo29AG splicing, HEK293 cells were transfected with pAdML-Theo29AG-EGFP reporter using polyfectin following manufacturer's instructions (Qiagen). Cells were grown and maintained in a humidified atmosphere at 37° C. under 5% CO2 in Dulbecco's Modified Eagle Medium (Cellgro) supplemented with 10% fetal bovine serum and antibiotics (100 μg/ml streptomycin and 100 U/ml penicillin). For transfection, cells (3×10^4, per well) were seeded in a 24 well plate and incubated for 24 h (50-80% confluency) at which time pAdML-Theo29AG-EGFP or pEGFP-N1 was introduced. After 10 hours of incubation, cells were treated with buffer or theophylline ([…]) and incubation was continued up to 48 hours. The GFP expression was visualized with a fluorescence microscope and cells were photographed with color CCD camera (Olympus).
An RT-PCR assay was performed to confirm that theophylline-mediated reduction of GFP expression is due to the inhibition of AdML-Theo29AG-EGFP splicing and not the result of mRNA degradation. Total RNA was isolated (from 3×10^4 cells) using trizol reagent. In a total volume of 20 μl, 5 μg of total RNA was reverse transcribed (RT) using vector specific reverse primer (GFPR, 5′-[…]-3′) according to manufacturer's instructions (Invitrogen Kit). Next, an aliquot (2 μl) of RT product was subjected to PCR amplification in a 50 μl reaction using 2.5 units of Taq polymerase, vector specific forward (GFPF, 5′-[…]-3′) and reverse primer (GFPR, 5′-[…]-3′). The amplified product was analyzed on a 2% agarose gel. […] Unlike the untreated control, which generated ˜250 bp fragment, theophylline treated cell yielded a PCR product corresponding to the size of unspliced RNA (˜350-bp).

Cn1c(=O)c2[nH]cnc2n(C)c1=O [theophylline]
splicing of AdML-Theo29AG-EGFP pre-mRNA by RT-PCR (HEK293): repressed the splicing
GFP expression of cells transfected with control plasmid pEGFP-N1 (HEK293, control plasmid): virtually no effect
GFP expression of cells transfected with pAdML-Theo29AG-EGFP (HEK293, theophylline, up to 48 hours): dose dependent decrease in GFP expression
theophylline concentration sufficient to inhibit pre-mRNA splicing (FIG. 11) (living cells): 0.1 to 0.5 mM
